# According to ChEMBL document CHEMBL3045287, “Synthesis and antimicrobial activity of morpholinyl/piperazinylbenzothiazines” (2012):
# Columns and labels:
# Bacillus cereus = assay: Antimicrobial activity against Bacillus cereus at 30 ug/ml after 24 hr by well diffusion assay; assay type: functional; details: read-out: IZ
# Escherichia coli = assay: Antimicrobial activity against Escherichia coli at 30 ug/ml after 24 hr by well diffusion assay; assay type: functional; details: read-out: IZ
Compound,zone of inhibition at 30 µg/mL (Bacillus cereus) [mm],zone of inhibition at 30 µg/mL (Escherichia coli) [mm]
O=C(N[C@H](CO)[C@H](O)c1ccc([N+](=O)[O-])cc1)C(Cl)Cl [CHLORAMPHENICOL],10,9
CC1=C(C(=O)N2CCOCC2)Sc2cc(C)ccc2N1,9,12
CC1=C(C(=O)N2CCOCC2)Sc2cc(Cl)ccc2N1,8,8
CC1=C(C(=O)N2CCN(CCO)CC2)Sc2ccccc2N1,7,9
Cc1ccc2c(c1)SC(C(=O)N1CCOCC1)=C(C(C)C)N2,10,7
CC1=C(C(=O)N2CCOCC2)Sc2ccccc2N1,12,9
CC1=C(C(=O)N2CCN(CCO)CC2)Sc2cc(Cl)ccc2N1,9,11
